The numbers were not newly measured in patent US20240398765A1, “TRANSDERMAL THERAPEUTIC SYSTEM FOR THE TRANSDERMAL ADMINISTRATION OF TIZANIDINE” (LTS LOHMANN THERAPIE-SYSTEME AG, priority 2021, published 2024), which cites them from elsewhere.

Structures can show the parent of a compound that is named as a salt.

The conditions of the data set: background statement, no test described.

Take `Clc1ccc2nsnc2c1NC1=NCCN1` [tizanidine in the form of its free base, 5-chloro-4-(2-imidazolin-2-ylamino)-2,1,3-benzothiadiazole]: the “permeation through the skin” value is reported as “slightly permeates through the skin”.

Take `Clc1ccc2nsnc2c1NC1=NCCN1` [tizanidine in the form of its hydrochloride]: the “permeation through the skin” value is reported as “does not permeate through the skin”.
